Test results taken from patent publication US4146622A, “Aziridinyl quinone anti-transplanted tumor agents” (priority 1977, dated 1979).
≈ marks a conversion by molar mass, not a printed value. Where “and” joins values, the source holds several entries; their conditions need not be identical. Identical values can stand only once. Entries after “also recorded” stand apart in the source; their conditions may differ.

Assays:
[1] = tested on: IP ascites tumor systems (leukemia L1210 and P388); experiment: IP ascites tumor systems (leukemia L1210 and P388); assay type: in vivo, murine
From the text: The criterion for minimum activity, %ILS, is defined here as follows: Intraperitoneal and intracerebral leukemia L1210 and intraperitoneal leukemia P388, 25%; intraperitoneal B16 melanoma and intracerebral ependymoblastoma, 40%. Consistent with NCI antitumor test protocols, intraperitoneal (IP) administration of the drug was employed with all five tumor systems investigated. Tumor implantation was IP in the systems designated IP leukemia L1210 and P388 as well as B16 melanoma. Intracerebral (IC) tumor implantation was utilized in the IC L1210 and ependymoblastoma tumor systems.

[2] = Octanol/H2O partition coefficient (log P); assay type: physicochemical; settings: Table VII, octanol/H2O; for logP: octanol/water
From the text: ^(b) Octanol/H2 O values determined by C. Hansch and M. Yamakawa

[3] = tested on: lymphoid leukemia L1210; experiment: Intraperitoneal (IP) lymphoid leukemia L1210 transplanted mouse tumor test; assay type: in vivo, murine; settings: for maximum ILS: IP L1210; for antitumor activity: IP L1210, tetraaminobenzoquinone series (Table VIII); for animals alive per 6 test animals on day of termination / survivors (number in parentheses) IP L1210: day 30; for ILS (%) IP L1210 / survivors (number in parentheses) IP L1210: Table XI; for ILS (%) IP L1210: outstanding activity; for survivors (number in parentheses) IP L1210: per 6 test animals; for cures: survivors on day 30, L1210
From the text: ^(a) Day 1-9 treatment schedule (9 injections)
^(b) Day 1,5,9 treatment schedule (3 injections)
^(c) Day 1 only treatment schedule (1 injection)
^(f) Percentage increase in life span of treated animals [(treated
survival .div. control survival) × 100%] - 100%

[4] = Room temperature water solubility; assay type: physicochemical; settings: water; Table VII; room temperature, approximate; read-out: Approx. H2O Sol.
Experimental: In the following examples, all melting points are uncorrected and were recorded on a Thomas-Hoover capillary melting point apparatus. Elemental analyses were performed by NIAMDD, NIH, Bethesda, Maryland. Fluoranil, ethyleneimine and 2l -methylethyleneimine were obtained commerically. […] New compounds were identified by nmr and ir spectroscopy. In the tetraamino derivatives, the methylene protons of the aziridine rings usually occurred as a singlet at δ2.0-2.2 in CDCl3 or DMSO-d6. This absorption appeared at δ2.40 (CDCl3) for compound 11. Carbonyl absorption frequencies (nujol mull) occurred in the range 1620-1640 cm^-1 for the tetraamino compounds. Satisfactory elemental analyses (+0.4% of calculated values) are indicated by elemental symbols in Table VII. Room temperature water solubilities were determined by the incremental addition (pipet) of water to a weighed amount of compound with shaking. The solubility values in Table VII must be considered as approximate.

[5] = tested on: P388 lymphocytic leukemia; experiment: Intraperitoneal (IP) lymphocytic leukemia P388 transplanted mouse tumor test; assay type: in vivo, murine; settings: for antitumor activity: IP P388; for cures: P388, 30 day survivors, QD1-9; for OD (optimum dose) / ILS (percentage increase in life span) / animals alive per 6 test animals on day of termination: Table IX; for OD (optimum dose): IP P388, QD1-9; for ILS (percentage increase in life span) / animals alive per 6 test animals on day of termination: IP P388, QD1-9, at OD; for animals alive per 6 test animals on day of termination / survivors (number in parentheses) P388: day 30; for survivors (number in parentheses) P388: Table XI, per 6 test animals
From the text: (§1) ^b Ip tumor implantation, ip QD1-9 treatment schedule.
(§2) The L1210, P388 and B16 test systems described in Table II utilize intraperitoneal (IP) tumor implantation and IP drug treatment while the Lewis lung system employs subcutaneous tumor implantation and IP treatment.
(§3) Aqueous saline solution (0.9%) was used as the drug vehicle. Normally, five doses were employed per experiment with the top dose chosen to produce toxicity. The lower doses were 50% of each preceeding dose.
(§4) Consistent with NCI antitumor test protocols, intraperitoneal (IP) administration of the drug was employed with all five tumor systems investigated. Tumor implantation was IP in the systems designated IP leukemia L1210 and P388 as well as B16 melanoma.

[6] = tested on: lymphoid leukemia L1210; experiment: Intracerebral (IC) lymphoid leukemia L1210 test; assay type: in vivo, murine; settings: for antitumor activity: IC L1210; for OD (optimum dose): IC L1210, QD1-9
From the text: ^b Ic tumor implantation, ip QD1-9 treatment schedule.
The L1210, P388 and B16 test systems described in Table II utilize intraperitoneal (IP) tumor implantation and IP drug treatment while the Lewis lung system employs subcutaneous tumor implantation and IP treatment. All three CNS tumor models (Table III) use intracerebral (IC) tumor implantation and IP treatment.
Consistent with NCI antitumor test protocols, intraperitoneal (IP) administration of the drug was employed with all five tumor systems investigated. Tumor implantation was IP in the systems designated IP leukemia L1210 and P388 as well as B16 melanoma. Intracerebral (IC) tumor implantation was utilized in the IC L1210 and ependymoblastoma tumor systems.

[7] = tested on: ependymoblastoma; experiment: Intracerebral (IC) ependymoblastoma (EM) brain tumor test; assay type: in vivo, murine; settings: for OD (optimum dose): QD1-5
From the text: ^c Ic tumor implantation, ip QD1-5 treatment schedule.
^g Number of animals alive per six test animals on day of termination
of experiment (day 99 for expt 133 and day 60 for expt 136 and 144).
A third IC transplanted mouse tumor model, the ependymoblastoma system, was also studied. This system requires intracerebral implantation of a solid tumor fragment while the IC L1210 and IC P388 systems utilize IC inoculated ascites tumor fluid. All three use IP drug treatment however. […] Cures (survivors from the group of six mice on the last day of the experiment) are indicated. Experiments 136 and 144 were terminated on day 60. Since the number of cures was about the same, the differences in T/C values in these two experiments reflect differences in the life span of the two different sets of control animals. Experiment 133 was terminated on day 99 with a resulting higher activity value.
The hydrophilic dihydroxypropylamino compound (No. 39), which was curative in the IP L1210 and P388 leukemia systems, was active but gave a large spread in ILS values (53-186%). […] Again, its hydrophilic character may present transport problems in this IC tumor system.

[8] = tested on: B16 melanocarcinoma; experiment: Intraperitoneal B16 melanocarcinoma transplanted mouse tumor test; assay type: in vivo, murine; settings: for antitumor activity: B16 melanoma; for OD (optimum dose) / ILS (percentage increase in life span): Table IX; for OD (optimum dose): B16, QD1-9; for ILS (percentage increase in life span): B16, QD1-9, at OD; for ILS (%) B16: Table XI, outstanding activity
From the text: as §1, §2, §3, §4

[9] = Table VIII, IP L1210, Day 1 only (1 injection)
[10] = Table VIII, IP L1210, Day 1 only, at OD
[11] = Table VIII, IP L1210, Q4D(1,5,9) (3 injections)
[12] = Table VIII, IP L1210, QD1-9 (9 injections)
[13] = Table X, IC L1210, QD1-9, at OD
[14] = Table X, IC ependymoblastoma, QD1-5, at OD
[15] = Table VIII, IP L1210, Q4D(1,5,9), at OD
[16] = Table VIII, IP L1210, QD1-9, at OD

Row | SMILES | antitumor activity [1] | maximum ILS [3] | antitumor activity [3] | OD (optimum dose) [3, 9] | OD (optimum dose) [3, 11] | OD (optimum dose) [3, 12] | survivors (number in parentheses) IP L1210 [3] | cures [3] | solubility [4] | antitumor activity [5] | cures [5] | OD (optimum dose) [5] | ILS (percentage increase in life span) [5] | animals alive per 6 test animals on day of termination [5] | survivors (number in parentheses) P388 [5] | antitumor activity [6] | OD (optimum dose) ([6]; Table X) | ILS (percentage increase in life span) [6, 13] | ILS (percentage increase in life span) [7, 14] | ILS (percentage increase in life span) [8] | other results
1 | O=C1C(NCC(O)CO)=C(N2CC2)C(=O)C(NCC(O)CO)=C1N1CC1 (stereo not drawn) [Compound 39] | curative; also recorded: probably the most active compound | > 200% | Excellent activity | 4.0 mg/kg/injection and 2.0 mg/kg/injection | 4.0 mg/kg/injection and 8.0 mg/kg/injection | 4.0 mg/kg/injection and 2.0 mg/kg/injection | 5 | produced cures | 30 mg/mL (≈ 81.4 mM) | very active | multiple cures | 4.0 mg/kg/injection | 143% and 141% | 6 and 4 | 6 | marginal | 4.0 mg/kg/injection | 41% and 43% | 99% and 53% | 50% and 42% | log P [2]: -1.97; animals alive per 6 test animals on day of termination [3, 10]: 4; ILS (%) IP L1210 [3]: 206%; cures ([3]; listed as dihydroxypropylamino): Multiple cures; ILS values (spread) ([7]; EM, repeat tests): 53-186%; antitumor activity ([7]; IC ependymoblastoma (EM)): moderate to good EM activity; animals alive per 6 test animals on day of termination ([7]; Table X, IC ependymoblastoma, QD1-5, at OD, day 60): 1; antitumor activity [8]: active; OD (optimum dose) [8]: 4.0 mg/kg/injection and 6.0 mg/kg/injection; ILS (%) B16 [8]: 50%
2 | O=C1C(NCCO)=C(N2CC2)C(=O)C(NCCO)=C1N1CC1 [Compound 38] | most active; also recorded: superior | > 200% | Excellent activity | 1.5 mg/kg/injection | 0.7 mg/kg/injection | 0.7 mg/kg/injection | 2 | produced cures | 2 mg/mL (≈ 6.49 mM) | very active | multiple cures | 0.4 mg/kg/injection | 175% and 160% | 3 and 2 | 3 | marginal | 0.75 mg/kg/injection | 57% and 48% | 83% and 70% | 61% and 51% | logP [2]: -1.48; ILS (percentage increase in life span) [3, 10]: 175% and 119%; animals alive per 6 test animals on day of termination [3, 10]: 5 and 3; ILS (percentage increase in life span) [3, 15]: 131% and 70%; ILS (percentage increase in life span) [3, 16]: 205% and 134%; animals alive per 6 test animals on day of termination [3, 16]: 2 and 3; ILS (%) IP L1210 [3]: 205%; cures ([3]; listed as hydroxyethylamino): Multiple cures; ILS (%) IC L1210 ([6]; Table XI, outstanding activity): 57%; OD (optimum dose) ([7]; Table X, IC ependymoblastoma): 1.5 mg/kg/injection; antitumor activity [8]: active; OD (optimum dose) [8]: 0.4 mg/kg/injection; ILS (%) B16 [8]: 61%
3 | O=C1C(N2CCN(CCO)CC2)=C(N2CC2)C(=O)C(N2CCN(CCO)CC2)=C1N1CC1 [Compound 47] | most active; also recorded: superior | – | – | 4.0 mg/kg/injection | 4.0 mg/kg/injection and 2.0 mg/kg/injection | 1.0 mg/kg/injection and 0.5 mg/kg/injection | 3 | produced cures | 20 mg/mL (≈ 44.8 mM) | very active | multiple cures | 0.5 mg/kg/injection and 1.0 mg/kg/injection | 149% and 143% | 3 and 6 | 3 | marginal | 2.0 mg/kg/injection and 1.5 mg/kg/injection | 43% and 41% | 75% | 22% | logP [2]: -0.75; animals alive per 6 test animals on day of termination [3, 15]: 3 and 4; T - C (average weight change of test group minus control) ([3]; Table VIII, IP L1210, QD1-9, at OD, day 5): -1.7 grams; animals alive per 6 test animals on day of termination [3, 16]: 1; T - C (average weight change of test group minus control) ([6]; Table X, IC L1210, QD1-9, at OD, day 5): -1.4 grams; OD (optimum dose) ([7]; Table X, IC ependymoblastoma): 1.0 mg/kg/injection
